# Laboratory results taken from patent US7091033B2, “Array of toxicologically relevant canine genes and uses thereof” (Phase-1 Molecular Toxicology, Inc., priority 2000, dated 2006).
# Like-named read-outs stand apart in the source and are kept apart here.
# Key:
# Assay type in all cases: in vivo
# [1] = system: Cytochrome P450 2B (gene expression); experiment: Canine array gene expression profile of liver from dog dosed with erythromycin estolate; conditions: dog, liver, 100 mg/kg
# Procedure: (§1) For liver or kidney, about 0.15-0.20 g of tissue was weighed and placed in a 15 ml conical tube. All tissue were kept on dry ice when other samples were being weighed.
# (§2) About 3.8 ml of RLT buffer was added to the tube containing the sample. The RLT buffer® from Qiagen can be prepared beforehand by adding 10 μl betamercaptoethanol to each 1.0 ml of lysis buffer needed. The tissue was homogenized using the rotor-stator homogenizer for 45 seconds. A IKA Ultra Turrax T25 homogenizer set at speed 4 with the S25N-10G dispersing element can be used. Alternatively, a Virtishear Cyclone 750W rotor/stator homogenizer (Virtis item #278077) can be used with the 7 mm microfine sawtooth shaft and generator (195 mm long with a processing range of 0.25 ml to 20 ml, item #372718). After homogenization, samples were stored on ice until all samples were homogenized. To clean the homogenizing tip between samples, the tip was first run for a few seconds in 95% ethanol and then rinsed by squirting with fresh 95% ethanol. This process was repeated with nanopure water.
# (§3) The tissue lysate was centrifuged at room temperature for 10 minutes at 3700-3800 rpm in a Beckman GS-6 (or equivalent) centrifuge to remove nuclei thus reducing DNA contamination.
# (§4) The supernatant of the lysate was transferred to a clean 15 ml conical tubes containing an equal volume of 70% EtOH in DEPC treated H2O, being careful not to include any of the pellet or fatty layer and mixed. About 3.8 ml of sample was added to the RNeasy spin column placed in a 15 ml centrifuge tube and centrifuged at 3000×g (3690-3710 rpm, Beckman GS-6) for 5 min. The flow-through was discarded. The remaining sample was added to the appropriate column and spun at 3000×g for 5 minutes and the flow-through was discarded.
# (§5) About 4.0 ml of Buffer RW1 (Qiagen®) was added to the column and spun as before then about 2.5 ml of buffer RPE (Qiagen®) was added to column and spun at 3000×g (3690-3710 rpm, Beckman GS-6) for 2 minutes. In this example, RPE buffer was supplied as a concentrate so 4 volumes of 95% EtOH was added before use. For the midi kit, about 220 ml of 95% EtOH would be added to 55 ml of RPE. Another 2.5 ml of buffer RPE was added and spun for 5 minutes to also dry out column. The column, including the tip, should be dry for the next elution step.
# (§6) For elution, the column that has the RNA bound to a clean 15 ml tube was transferred and 200 μl of RNase-free water was added to the column, allowed to sit for 1 minute, and spun for 3 minutes at 3000×g (3690-3710 rpm, Beckman GS6). This step was repeated into the same tube but with 200 μl RNase-free water.
# (§7) Liver and kidney organs were isolated from a dog which was dosed with erythromycin esolate at 100 mg/kg/day for 2 or 10 days. The dog was euthanized 16 hours after the last dosage and the organs were harvested according to standard sterile procedure. RNA was isolated from the kidney and liver as detailed in Example 1. cDNA was made from the RNA and used as probes as detailed in the Examples above.
# [2] = system: Cytochrome P450 2C21 (gene expression); experiment: as above; conditions: dog, liver, 100 mg/kg
# Procedure: as §1, §2, §3, §4, §5, §6, §7
# [3] = system: Cytochrome P450 2D (gene expression); experiment: as above; conditions: dog, liver, 100 mg/kg
# Procedure: as §1, §2, §3, §4, §5, §6, §7
# Cytochrome P450 2C21 = experiment: Canine array gene expression profile of kidney from dog dosed with erythromycin estolate; conditions: dog, kidney, 100 mg/kg
# Procedure: as §1, §2, §3, §4, §5, §6, §7
# Cytochrome P450 2C41 = experiment: as above; conditions: dog, kidney, 100 mg/kg
# Procedure: as §1, §2, §3, §4, §5, §6, §7
# [4] = system: Cytochrome P450 2D (gene expression); experiment: as above; conditions: dog, kidney, 100 mg/kg
# Procedure: as §1, §2, §3, §4, §5, §6, §7
# Cytochrome P450 3A = experiment: as above; conditions: dog, kidney, 100 mg/kg
# Procedure: as §1, §2, §3, §4, §5, §6, §7
# Glucose transporter = experiment: as above; conditions: dog, kidney, 100 mg/kg
# Procedure: as §1, §2, §3, §4, §5, §6, §7
# [5] = system: Glutathione S-transferase alpha subunit; experiment: as above; conditions: dog, kidney, 100 mg/kg
# Procedure: as §1, §2, §3, §4, §5, §6, §7
# [6] = system: Multidrug resistant protein-1; experiment: as above; conditions: dog, kidney, 100 mg/kg
# Procedure: as §1, §2, §3, §4, §5, §6, §7
# [7] = system: canine kidney gene expression; experiment: as above; conditions: Canis lupus familiaris, 240 h, 10 days
# Procedure: as §1, §2, §3, §4, §5, §6, §7
compound,measurement,setting,value
CCC(=O)O[C@H]1[C@H](O[C@@H]2[C@@H](C)[C@H](O[C@H]3C[C@@](C)(OC)[C@@H](O)[C@H](C)O3)[C@@H](C)C(=O)O[C@H](CC)[C@@](C)(O)[C@H](O)[C@@H](C)C(=O)[C@H](C)C[C@@]2(C)O)O[C@H](C)C[C@@H]1N(C)C [erythromycin estolate],fold induction at 10 days,[1],1.9
same,fold induction at 10 days,[2],1.3
same,fold induction at 10 days,[3],1.1
same,fold induction at 10 days,Cytochrome P450 2C21,1.1
same,fold induction at 10 days,Cytochrome P450 2C41,1.2
same,fold induction at 10 days,[4],1.1
same,fold induction at 10 days,Cytochrome P450 3A,1.3
same,fold induction at 10 days,Glucose transporter,1.1
same,fold induction at 10 days,[5],1.1
same,fold induction at 10 days,[6],1.2
same,fold induction at 100 mg/kg,[7]; read-out: Alkaline phosphatase fold induction,1.6
same,fold induction at 100 mg/kg,[7]; read-out: Angiopoietin-related protein 3 (ANGPTL3) fold induction,1
same,fold induction at 100 mg/kg,[7]; read-out: BRCA1 fold induction,1.2
same,fold induction at 100 mg/kg,[7]; read-out: Beta-glucuronidase fold induction,1.1
same,fold induction at 100 mg/kg,[7]; read-out: Catalase fold induction,1.2
same,fold induction at 100 mg/kg,[7]; read-out: Caveolin-1 fold induction,1
same,fold induction at 100 mg/kg,[7]; read-out: Caveolin-2 fold induction,1.6
same,fold induction at 100 mg/kg,[7]; read-out: Cubilin fold induction,1.1
same,fold induction at 100 mg/kg,[7]; read-out: Cytochrome c oxidase subunit VIIaL fold induction,1
same,fold induction at 100 mg/kg,[7]; read-out: Decorin fold induction,1.1
same,fold induction at 100 mg/kg,[7]; read-out: FGFR2 fold induction,1.1
same,fold induction at 100 mg/kg,[7]; read-out: GRP94 fold induction,1.1
same,fold induction at 100 mg/kg,[7]; read-out: Gadd45 fold induction,1
same,fold induction at 100 mg/kg,[7]; read-out: Glucose-regulated protein 94 #1 fold induction,1.4
same,fold induction at 100 mg/kg,[7]; read-out: N-cadherin fold induction,1.1
same,fold induction at 100 mg/kg,[7]; read-out: Phase-1 CCT-4 fold induction,1.1
same,fold induction at 100 mg/kg,[7]; read-out: Phase-1 CCT-8 fold induction,1.1
same,fold induction at 100 mg/kg,[7]; read-out: Phase-1 CCT-12 fold induction,1.1
same,fold induction at 100 mg/kg,[7]; read-out: Phase-1 CCT-13 fold induction,1
same,fold induction at 100 mg/kg,[7]; read-out: Phase-1 CCT-14 fold induction,1
same,fold induction at 100 mg/kg,[7]; read-out: Phase-1 CCT-16 fold induction,1
same,fold induction at 100 mg/kg,[7]; read-out: Phase-1 CCT-17 fold induction,1
same,fold induction at 100 mg/kg,[7]; read-out: Phase-1 CCT-18 fold induction,1.2
same,fold induction at 100 mg/kg,[7]; read-out: Phase-1 CCT-19 fold induction,1.2
same,fold induction at 100 mg/kg,[7]; read-out: Phase-1 CCT-27 fold induction,1.4
same,fold induction at 100 mg/kg,[7]; read-out: Phase-1 CCT-30 fold induction,1.3
same,fold induction at 100 mg/kg,[7]; read-out: Phase-1 CCT-31 fold induction,1.1
same,fold induction at 100 mg/kg,[7]; read-out: Phase-1 CCT-32 fold induction,1.1
same,fold induction at 100 mg/kg,[7]; read-out: Phase-1 CCT-33 fold induction,1.1
same,fold induction at 100 mg/kg,[7]; read-out: Phase-1 CCT-34 fold induction,1.1
same,fold induction at 100 mg/kg,[7]; read-out: Phase-1 CCT-36 fold induction,1
same,fold induction at 100 mg/kg,[7]; read-out: Phase-1 CCT-40 fold induction,1.2
same,fold induction at 100 mg/kg,[7]; read-out: Phase-1 CCT-41 fold induction,1.2
same,fold induction at 100 mg/kg,[7]; read-out: Phase-1 CCT-42 fold induction,1.1
same,fold induction at 100 mg/kg,[7]; read-out: Phase-1 CCT-43 fold induction,1.2
same,fold induction at 100 mg/kg,[7]; read-out: Phase-1 CCT-49 fold induction,1
same,fold induction at 100 mg/kg,[7]; read-out: Phase-1 CCT-50 fold induction,1.1
same,fold induction at 100 mg/kg,[7]; read-out: Phase-1 CCT-51 fold induction,1.2
same,fold induction at 100 mg/kg,[7]; read-out: Phase-1 CCT-52 fold induction,1.1
same,fold induction at 100 mg/kg,[7]; read-out: Phase-1 CCT-53 fold induction,1
same,fold induction at 100 mg/kg,[7]; read-out: Phase-1 CCT-55 fold induction,1.1
same,fold induction at 100 mg/kg,[7]; read-out: Phase-1 CCT-56 fold induction,1.1
same,fold induction at 100 mg/kg,[7]; read-out: Phase-1 CCT-58 fold induction,1.5
same,fold induction at 100 mg/kg,[7]; read-out: Phase-1 CCT-59 fold induction,1
same,fold induction at 100 mg/kg,[7]; read-out: Phase-1 CCT-60 fold induction,1.1
same,fold induction at 100 mg/kg,[7]; read-out: Phase-1 CCT-62 fold induction,1.1
same,fold induction at 100 mg/kg,[7]; read-out: Phase-1 CCT-65 fold induction,1.1
same,fold induction at 100 mg/kg,[7]; read-out: Phase-1 CCT-66 fold induction,1.1
same,fold induction at 100 mg/kg,[7]; read-out: Phase-1 CCT-73 fold induction,1.1
same,fold induction at 100 mg/kg,[7]; read-out: Phase-1 CCT-76 fold induction,1
same,fold induction at 100 mg/kg,[7]; read-out: Phase-1 CCT-82 fold induction,1
same,fold induction at 100 mg/kg,[7]; read-out: Phase-1 CCT-84 fold induction,1.1
same,fold induction at 100 mg/kg,[7]; read-out: Phase-1 CCT-87 fold induction,1.2
same,fold induction at 100 mg/kg,[7]; read-out: Phase-1 CCT-88 fold induction,1.2
same,fold induction at 100 mg/kg,[7]; read-out: Phase-1 CCT-89 fold induction,1.1
same,fold induction at 100 mg/kg,[7]; read-out: Phase-1 CCT-91 fold induction,1.1
same,fold induction at 100 mg/kg,[7]; read-out: Phase-1 CCT-93 fold induction,1
same,fold induction at 100 mg/kg,[7]; read-out: Proliferating cell nuclear antigen gene fold induction,1.1
same,fold induction at 100 mg/kg,[7]; read-out: Prostaglandin D synthase fold induction,1.2
same,fold induction at 100 mg/kg,[7]; read-out: Rab2 fold induction,1.2
same,fold induction at 100 mg/kg,[7]; read-out: Rab5 fold induction,1.1
same,fold induction at 100 mg/kg,[7]; read-out: Rab7 fold induction,1.4
same,fold induction at 100 mg/kg,[7]; read-out: Superoxide dismutase Mn fold induction,1.1
same,fold induction at 100 mg/kg,[7]; read-out: TFCOUP-related (probable steroid hormone receptor) fold induction,1.1
same,fold induction at 100 mg/kg,[7]; read-out: TPRD fold induction,1.1
same,fold induction at 100 mg/kg,[7]; read-out: UV excision repair protein RAD 23 (XP-C) fold induction,1.2
same,fold induction at 100 mg/kg,[7]; read-out: c-erb B-2 fold induction,1.4
same,fold induction at 100 mg/kg,[7]; read-out: p53 fold induction,1.4
same,fold induction at 100 mg/kg,"[7]; iv, read-out: ZAP36/annexin IV fold induction",1.6
